According to patent US11135184B2, “Formulations for epidermal repair” (CLARIDEI LABORATORIES, INC., priority 2013, dated 2021):

Legend:
[1] = test system: 11β-hydroxysteroid dehydrogenase; settings: cited from earlier work
[2] = cited from earlier work
guinea pig ileum = settings: cited from earlier work
[3] = test system: histamine-induced scratching behavior; settings: applied to the skin of mice; cited from earlier work
NF-kappaB = settings: histamine-stimulated skin; cited from earlier work
[4] = test system: lymphocytic transformation; settings: cited from earlier work
atopic dry skin = settings: cited from earlier work
[5] = test system: serine palmitoyltransferase; settings: cited from earlier work
[6] = test system: 3′-5′ cyclic AMP phosphodiesterase; settings: cited from earlier work
[7] = test system: cutaneous lupus erythematosus; experiment: prior treatment of a patient with cutaneous lupus erythematosus; type: in vivo, human; settings: one patient
From the text: A patient presented with a three year history of cutaneous lupus erythematosus. They had been suffering from systemic lupus erythematosus for some time before the rash that is characteristic of cutaneous lupus erythematosus appeared on their chest, arms, neck and face.
Prior to treatment with a treatment regime utilizing the formulations of the present disclosure, this patient had been treated with several different treatment regimens representing the standard of care for cutaneous lupus erythematosus patients. […] All attempts to reduce the patient's suffering from cutaneous lupus erythematosus had brought little to no relief.

[8] = test system: ultraviolet radiation damage; settings: in vitro model of cutaneous photoaging; cited from earlier work
Δ4β-reductase = molecular target: T1, Δ4β-reductase (Homo sapiens, UniProt P51857); settings: in vitro; cited from earlier work
T1 sequence (P51857 1-326): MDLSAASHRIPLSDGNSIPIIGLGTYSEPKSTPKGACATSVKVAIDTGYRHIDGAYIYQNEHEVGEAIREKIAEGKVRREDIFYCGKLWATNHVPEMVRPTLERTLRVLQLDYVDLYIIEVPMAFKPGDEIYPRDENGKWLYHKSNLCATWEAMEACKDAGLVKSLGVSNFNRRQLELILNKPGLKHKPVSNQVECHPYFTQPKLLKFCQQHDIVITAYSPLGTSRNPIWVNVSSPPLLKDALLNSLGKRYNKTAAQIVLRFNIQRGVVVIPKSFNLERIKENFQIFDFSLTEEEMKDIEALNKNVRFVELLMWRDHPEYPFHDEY

Staphylococcus aureus = settings: in vitro; cited from earlier work
Mycobacterium smegmatis = settings: in vitro; cited from earlier work
contact dermatitis = settings: mice, cited from earlier work
Candida albicans = settings: in vitro; cited from earlier work

CC1(C)[C@@H](OC(=O)CCC(=O)O)CC[C@]2(C)[C@H]3C(=O)C=C4[C@@H]5C[C@@](C)(C(=O)O)CC[C@]5(C)CC[C@@]4(C)[C@]3(C)CC[C@@H]12 [Carbenoxolone]
inhibition of 11β-hydroxysteroid dehydrogenase [1]: inhibits

O=C(O)[C@H](O)[C@@H](O)[C@H](O[C@@H]1O[C@H](CO)[C@H](O)[C@H](O)[C@H]1O)[C@H](O)CO [Lactobionic acid, 4-O-β-galactopyranosyl-β-gluconic acid]
pKa [2]: 3.8

CCCCCCCCCCCCCCCCCC(=O)N[C@@H](CO)[C@H](O)[C@H](O)CCCCCCCCCCCCCC [N-stearoyl-phytosphingosine, N-Stearoyl-phytosphingosine]
anti-histamine effects in the Magnus test (guinea pig ileum): potent anti-histamine effects | histamine-induced scratching behavior [3]: effectively inhibited | activation of the transcription factor NF-kappaB (NF-kappaB): inhibited

NC(=O)c1cccnc1 [Niacinamide]
antigen-induced lymphocytic transformation [4]: suppress | transepidermal water loss (atopic dry skin; atopic dermatitis): decrease | moisturizer effectiveness compared with white petrolatum (atopic dry skin; atopic dry skin): more effective moisturizer than white petrolatum | de novo synthesis of ceramides (e.g., glucosylceramide and sphingomyelin) [5]: stimulating | expression of serine palmitoyltransferase [5]: up-regulated | inhibition of 3′-5′ cyclic AMP phosphodiesterase [6]: Inhibit

CC(=O)Oc1ccccc1C(=O)O [aspirin]
effect on cutaneous lupus erythematosus ([7]; orally administered): little or no effect

C[C@H](CCC(=O)O)[C@H]1CC[C@H]2[C@@H]3[C@H](O)C[C@@H]4C[C@H](O)CC[C@]4(C)[C@H]3CC[C@]12C [chenodeoxycholic acid]
inhibition of 11β-hydroxysteroid dehydrogenase [1]: inhibits

CCN(CC)CCCC(C)Nc1ccnc2cc(Cl)ccc12 (centres unmarked) [chloroquin]
effect on cutaneous lupus erythematosus ([7]; orally administered): little or no effect

C[C@]12CCC(=O)C=C1CC[C@@H]1[C@@H]2C(=O)C[C@@]2(C)[C@H]1CC[C@]2(O)C(=O)CO [cortisone]
effect on cutaneous lupus erythematosus ([7]; shots): little or no effect

O=C1O[C@H](CO)[C@@H](O)[C@H](O)[C@H]1O [glucono delta-lactone, Glucono delta-lactone]
protection against ultraviolet radiation [8]: photoprotective activity

CC1(C)[C@@H](O)CC[C@]2(C)[C@H]3C(=O)C=C4[C@@H]5C[C@@](C)(C(=O)O)CC[C@]5(C)CC[C@@]4(C)[C@]3(C)CC[C@@H]12 [glycyrrhetinic acid, 18β-glycyrrhetinic acid]
inhibition of 11β-hydroxysteroid dehydrogenase [1]: inhibit | inhibition of Δ4β-reductase (Δ4β-reductase): inhibit

CC1(C)[C@@H](O[C@H]2O[C@H](C(=O)O)[C@@H](O)[C@H](O)[C@H]2O[C@@H]2O[C@H](C(=O)O)[C@@H](O)[C@H](O)[C@H]2O)CC[C@]2(C)[C@H]3C(=O)C=C4[C@@H]5C[C@@](C)(C(=O)O)CC[C@]5(C)CC[C@@]4(C)[C@]3(C)CC[C@@H]12 [glycyrrhizic acid, Glycyrrhizic acid]
growth of Staphylococcus aureus (Staphylococcus aureus): inhibit the growth | growth of Mycobacterium smegmatis (Mycobacterium smegmatis): inhibit the growth | effect on contact dermatitis (contact dermatitis; administered orally): ineffective | effectiveness against contact dermatitis compared with prednisolone (contact dermatitis; given intraperitoneally): more effective than prednisolone | suppression of contact dermatitis (contact dermatitis; given intraperitoneally): suppress | growth of Candida albicans (Candida albicans): inhibit the growth

CCCCCCCCCCCCCC[C@@H](O)[C@@H](O)[C@@H](N)CO [phytosphingosine, Phytosphingosine]
anti-histamine effects in the Magnus test (guinea pig ileum): potent anti-histamine effects | histamine-induced scratching behavior [3]: effectively inhibited | activation of the transcription factor NF-kappaB (NF-kappaB): inhibited

CCN(CCO)CCCC(C)Nc1ccnc2cc(Cl)ccc12.O=S(=O)(O)O (centres unmarked) [plaquenyl]
effect on cutaneous lupus erythematosus ([7]; orally administered): little or no effect

C[C@]12C=CC(=O)C=C1CC[C@@H]1[C@@H]2C(=O)C[C@@]2(C)[C@H]1CC[C@]2(O)C(=O)CO [prednisone]
effect on cutaneous lupus erythematosus ([7]; orally administered): little or no effect
